# From article PMC10072326, “Promising anticancer agents based on 8-hydroxyquinoline hydrazone copper(II) complexes” (Frontiers in Chemistry, 2023)
# How the values were obtained:
# A-375 cells = assay: Sulforhodamine B (SRB) cell viability assay; format: cell-based; conditions: 72 h
# A-549 cells = assay: Sulforhodamine B (SRB) cell viability assay; format: cell-based; conditions: 72 h
# S. aureus ATCC 25928 = assay: MIC determination; format: cell-based, Staphylococcus aureus; conditions: S. aureus ATCC 25928 (sensitive); 18 h
# Description: (§1) Wild-type Escherichia coli K-12 AG100 strain [argE3 thi-1 rpsL xyl mtl Δ(gal-uvrB) supE44] expressing the AcrAB TolC efflux pump at its basal level and Klebsiella pneumoniae ATCC 49619 Gram-negative strains were studied in the experiments. Sensitive (ATCC 25928) and the methicillin-resistant (MRSA 272123) subspecies of Staphylococcus aureus were used as Gram-positive strains in the assays.
# (§2) Minimum inhibitory concentration (MIC) values of selected compounds were determined in 96-well plates based on the Clinical and Laboratory Standard Institute guidelines (CLSI guidelines). The stock solutions of the compounds were dissolved in DMSO using 1.3 μL of Mueller Hinton Broth, and then two-fold serial dilutions were performed. The starting concentration of the compounds was 100 μM. Then 10^‒4 dilution of an overnight bacterial culture in 100 μL of medium was added to each well, except for the medium control wells.
# [1] = molecular target: bovine serum albumin (BSA) (Bos taurus, UniProt P02769); assay: BSA fluorescence quenching; format: binding; parameters: Affinity constant K ± SD: unit not given here; conditions: for Affinity constant K ± SD: fluorescence quenching, HypSpec2014, 1:1 species assumed
# Description: To evaluate the interaction of the compounds, both organic and Cu(II) complexes, with bovine serum albumin (BSA) fluorescence spectra were measured. In a typical fluorescence experiment, to a solution of 1.5 μM of BSA in the same buffer, successive aliquots of a stock solution of each compound in DMSO were added directly to the cuvette (optical path 1.0 cm). The fluorescence emission was recorded between 310 and 600 nm with excitation at 295 nm. The final DMSO % was kept below 2% (v/v). The Stern-Volmer plots were built using the emission at 340 nm and blank samples (in the absence of BSA) with the same concentration of the complexes were recorded and subsequently subtracted from the corresponding emission spectra containing the fluorophore. Moreover, the fluorescence emission intensity was corrected for reabsorption and inner filter effects using UV-Vis absorption data recorded for each sample, since all complexes absorb in the measured wavelength range (19, 20).
# The interaction of the organic compounds and Cu(II) complexes with BSA was monitored by studying the quenching of albumin’s fluorescence emission with increasing concentrations of the complexes (25). Overall, the intensity of the Trp emission decreases with the addition of the complexes, except for 8 (see Figs. S19). The Stern-Volmer relationship was used to analyse the fluorescence quenching process:
# where I0 and I are the fluorescence intensities in the absence and in the presence of quencher, kq is the bimolecular quenching rate, τ0 is the fluorophore lifetime in the absence of the quencher (6.22 ns) (26) and [Q] is the quencher concentration. […] This linear relationship is obeyed for all complexes except 5, where a downward curvature is observed. This can be an indication of two distinct binding sites, corresponding to two populations of fluorophores, one being accessible and other inaccessible or buried inside the protein. In such cases, the Stern-Volmer relation can be modified to (27):
# where ΔI = I0 – I, Ka is the Stern-Volmer constant for the accessible fraction and fa is the fraction of accessible fluorophore. […] As first approximation, the total concentration of quencher was used to check the quenching mechanism. […] As all systems presented high absorbance values in the measured range of wavelengths, no excess of quencher was used and, therefore, 1:1 species will be assumed for these interactions.
# [2] = tested on: Klebsiella pneumoniae ATCC 49619; assay: MIC determination; format: cell-based; conditions: K. pneumoniae; 18 h
# Description: as §1, §2
# [3] = tested on: Escherichia coli K-12 AG100; assay: MIC determination; format: cell-based; conditions: E. coli; 18 h
# Description: as §1, §2
# calf thymus DNA (ctDNA) = assay: ctDNA thermal denaturation; format: binding; conditions: for ΔTm: equimolar amounts of compound and DNA, HEPES 0.01 M, pH 7.4; for melting temperature Tm of ctDNA with compound: equimolar mixtures (25 µM), 10 mM HEPES pH 7.4, 1.5% DMSO
# From the text: Nucleic acids are potential targets for metallodrugs and, consequently, evaluation of the interactions of the compounds with DNA and corresponding binding strength is relevant under the scope of this work. Thermal denaturation is a useful technique to measure the stability of the secondary structure of DNA (29). Under the chosen experimental conditions (HEPES, 0.01 M, pH 7.4), it is possible to follow the denaturation of calf thymus DNA (ctDNA) double strand.
# bovine serum albumin (BSA), sequence (P02769 25-607): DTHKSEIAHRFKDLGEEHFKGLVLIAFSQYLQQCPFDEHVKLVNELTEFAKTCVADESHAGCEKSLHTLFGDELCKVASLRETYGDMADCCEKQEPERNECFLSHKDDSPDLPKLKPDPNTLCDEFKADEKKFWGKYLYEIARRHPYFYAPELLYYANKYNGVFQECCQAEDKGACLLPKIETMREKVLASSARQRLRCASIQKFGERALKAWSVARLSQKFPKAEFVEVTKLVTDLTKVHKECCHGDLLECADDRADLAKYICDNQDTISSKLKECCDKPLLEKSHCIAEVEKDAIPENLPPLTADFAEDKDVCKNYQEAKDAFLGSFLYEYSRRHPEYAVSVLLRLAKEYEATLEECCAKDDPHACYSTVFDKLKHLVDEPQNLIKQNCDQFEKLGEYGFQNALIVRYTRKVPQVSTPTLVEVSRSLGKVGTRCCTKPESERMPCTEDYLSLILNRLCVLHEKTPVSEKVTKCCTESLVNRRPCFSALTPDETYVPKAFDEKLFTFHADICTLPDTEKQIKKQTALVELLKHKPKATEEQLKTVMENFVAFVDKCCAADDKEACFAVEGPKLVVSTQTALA
Compound,IC50 (A-375 cells),IC50 (A-549 cells),MIC (S. aureus ATCC 25928),Affinity constant K ± SD [1],MIC [2],MIC [3],ΔTm (calf thymus DNA (ctDNA)),melting temperature Tm of ctDNA with compound (calf thymus DNA (ctDNA)),Stern-Volmer constant for the accessible fraction Ka ([1]; modified Stern-Volmer),fraction of accessible fluorophore fa ([1]; modified Stern-Volmer)
"CC(=O)[O-].O=C(NN=Cc1ccc2cccc([O-])c2n1)c1ccccc1.[Cu+2] [Complex 1, [Cu(HL^1)(AcO)]]",2.7 ± 0.03 µM,4.2 ± 0.2 µM,50 µM,(8.4 ± 6.6) × 10^7,> 100 µM,> 100 µM,>25.0 °C,,,
"[Cu+2].[O-]C(=NN=Cc1ccc2cccc([O-])c2n1)c1ccc(F)cc1 [Complex 3, [Cu(L^3)]3]",5.1 ± 0.3 µM,8.9 ± 0.2 µM,100 µM,(3.4 ± 0.7) × 10^5,> 100 µM,> 100 µM,13.0 °C,73.2 ± 1.7 °C,,
"COc1ccc(C([O-])=NN=Cc2ccc3cccc([O-])c3n2)cc1.[Cu+2] [Complex 5, [Cu(L^5)]3]",3.4 ± 0.1 µM,5.1 ± 0.01 µM,100 µM,(1.05 ± 0.04) × 10^5,> 100 µM,> 100 µM,17.7 °C,77.9 ± 1.3 °C,2.1e+06 M⁻¹,0.24
